In article PMC10198977, “Computational design of dynamic receptor—peptide signaling complexes applied to chemotaxis” (Nature Communications, 2023):
Each block holds one molecule with its values, some of them ahead of it. Residues, ends and D or L forms follow the SMILES beside them. No end group written: not given here.

Assays:
WT CXCR4 [1] = target: T1, WT CXCR4 (Homo sapiens, UniProt P61073); experiment: Gαi BRET of peptides on WT CXCR4; format: cell-based; conditions: WT receptor, Gi
Experimental: (§1) Lyophilized peptides were stored at −80 °C and resuspended in assay buffer on the day of the experiment.
(§2) 40,000 HEK 293T cells were transiently transfected with WT or variant HA3-CXCR4, Gαi1−91-Rluc8, Gβ3-WT, and Gγ9-GFP2 in pcDNA3.1(+) at a ratio of 10:1:10:5 respectively. Cells were first seeded in 100 µL DMEM 10% FBS in a poly-lysine coated, white-walled, white-bottom 96-well plate. Directly after cell loading, 50 µL of the mixture containing Lipofectamine 2000 and the DNA was added on top of the cells. The cells were then left to incubate at 37 °C, 5% CO2, and 95% relative humidity for 20 h, after which, 150 µL media was refreshed. Cells were assayed 48 h post-transfection. Cells were washed with 150 µL PBS, then 40 µL BRET buffer (HBSS, 0.2% Glucose) was added to each well. Coelenterazine 400a was first added at a final concentration of 2.5 µM and BRET ratios were measured once using Mithras[2] LB 943 plate reader. After the first measurement, 40 µL of a 3x concentrated agonist solution was added to each well, and BRET ratios were measured for another 30 min using a Mithras[2] LB 943 plate reader. Mock-transfected controls were subtracted from the data. Maximum values averaged from 3 replicates were then plotted against selected concentrations and fitted to a sigmoidal curve using GraphPad Prism v9.

WT CXCR4 [2] = target: T1, WT CXCR4; experiment: Calcium mobilization of peptides on WT CXCR4; format: cell-based; conditions: WT receptor, Ca
Experimental: as §1
(§3) Calcium mobilization assays
(§4) 40,000 HEK 293T cells (gift from Prof. Ted Wensel at Baylor College of Medicine) were transiently transfected with 50 ng WT or variant HA3-CXCR4, 10 ng GNA15 in pcDNA3.1(+). To equalize receptor surface expression, 75 ng of HA3-CXCR4 was used for the Csel2 variant. Cells were first seeded in 100 µL DMEM (Gibco, ref: 41965-039) 10 % FBS in a black-walled, clear-bottom 96-well plate coated with poly-lysine (Sigma, ref: P6407-5MG). Directly after cell loading, 50 µL of the mixture containing 0.5 µL Lipofectamine 2000 (Invitrogen, ref: 11668-019) and the DNA was added on top of the cells. The cells were incubated at 37 °C, 5% CO2, and 95% relative humidity for 20 h, after which, media was refreshed with 150 µL DMEM + 10% FBS. Cells were assayed 48 h post-transfection. Cells were washed with 200 µL FLIPR6 buffer (HBSS + 20 mM HEPES, pH 7.4), then incubated at 37 °C, 5% CO2, and 95% relative humidity for 2 h in 200 µL dye buffer according to the manufacturer’s protocol (Molecular Devices, ref: R8190). Just before the assay, 5× concentrated peptide solutions were prepared in FLIPR6 buffer in a V-bottom 96-well plate. After incubation, peptide solutions were added at a rate of 16 µL/s after 30 s and fluorescence changes were monitored for 90 s after addition using microplate reader FlexStation3 (Molecular Devices). The maximum response after correction by the mock-transfected condition was averaged from three replicates. Values were then plotted against selected concentrations and fitted to a sigmoidal curve using GraphPad Prism v9.

Csedy [3] = target: T2, Csedy (Homo sapiens, UniProt P61073); experiment: Calcium mobilization of peptides on Csedy; format: cell-based; conditions: Csedy receptor, Ca
Experimental: as §1, §3, §4

Csedy [4] = target: T2, Csedy; experiment: Gαi BRET of peptides on Csedy; format: cell-based; conditions: Csedy receptor; for log(EC50): Gi
Experimental: as §1, §2

[5] = target: Csel2 designed CXCR4 receptor (UniProt P61073)
[6] = target: WT CXCR4 with an N-terminal 3xHA-tag (UniProt P61073)
[7] = target: Cdyn designed CXCR4 receptor (UniProt P61073)
[8] = tested on: CXCR4 variant ligand-binding cavity; experiment: Receptor cavity cross-sectional area and structure-function map; conditions: receptor–peptide pair; Fig. 5c z-axis
Excerpt: Calculation of receptor cavity cross-sectional area
To quantify the conformational diversity of the ligand binding site between receptor variants, the ligand-binding pocket of the receptor models (from whose the ligand molecule was removed) was geometrically described using pyKVFinder[75]. Cavities were defined using a 1.2 Å probe over a cubic lattice (0.25 Å vertex). A 4.0 Å probe was used to define the entrance of the cavity.

Gαi activation = experiment: Gαi dissociation BRET of designed receptors with WT CXCL12(1-17) peptide; format: cell-based; conditions: WT CXCL12 peptide
Experimental: as §1, §2

[9] = target: Csel2 designed CXCR4 receptor (UniProt P61073); remark: listed apart in the source
[10] = target: Cdyn designed CXCR4 receptor (UniProt P61073); remark: listed apart in the source
[11] = target: Csedy designed CXCR4 receptor (UniProt P61073)
[12] = target: Csedy designed CXCR4 receptor (UniProt P61073); remark: listed apart in the source

T2 sequence (P61073 whole entry): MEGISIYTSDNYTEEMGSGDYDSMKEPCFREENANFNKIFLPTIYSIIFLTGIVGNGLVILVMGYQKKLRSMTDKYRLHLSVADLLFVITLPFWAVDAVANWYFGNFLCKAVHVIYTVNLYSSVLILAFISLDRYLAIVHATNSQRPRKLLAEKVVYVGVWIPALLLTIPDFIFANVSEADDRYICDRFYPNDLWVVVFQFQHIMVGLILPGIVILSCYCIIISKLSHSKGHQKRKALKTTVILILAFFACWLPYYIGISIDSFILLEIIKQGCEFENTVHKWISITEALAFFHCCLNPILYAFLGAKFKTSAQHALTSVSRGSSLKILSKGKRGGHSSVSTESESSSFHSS
T1 sequence (P61073 whole entry): as above

Molecule: CC(C)C[C@H](NC(=O)[C@H](CO)NC(=O)[C@@H](NC(=O)[C@@H]1CCCN1C(=O)[C@@H](N)CCCCN)C(C)C)C(=O)N[C@@H](CO)C(=O)N[C@@H](Cc1ccc(O)cc1)C(=O)N[C@@H](CCCNC(=N)N)C(=O)N[C@@H](CS)C(=O)N1CCC[C@H]1C(=O)N[C@@H](CS)C(=O)N[C@@H](CCCNC(=N)N)C(=O)N[C@@H](Cc1ccccc1)C(=O)N[C@@H](Cc1ccccc1)C(=O)N[C@@H](CCC(=O)O)C(=O)N[C@@H](CO)C(=O)N[C@@H](Cc1c[nH]cn1)C(N)=O [WT, reference compound] (H-KPVSLSYRCPCRFFESH-NH2)
Efficacy (WT CXCR4 [1]; average (n=3)): 100 % WT
EC50 (WT CXCR4 [1]; replicate 1): 11.2 µM
EC50 (WT CXCR4 [1]; replicate 2): 9.75 µM
EC50 (WT CXCR4 [1]; replicate 3): 12 µM
Efficacy (WT CXCR4 [2]; average (n=3)): 100 % WT
EC50 (WT CXCR4 [2]; replicate 1): 12.9 µM
EC50 (WT CXCR4 [2]; replicate 2): 8.57 µM
EC50 (WT CXCR4 [2]; replicate 3): 15.3 µM

Molecule: KPVSLSLRCPCRFFESH-NH2 (cysteine pairing not given here) [CXCL12 Y7L variant peptide (17 N-terminal residues)]
Gαi efficacy (BRET) with the Y7L peptide, increase [5]: 30%
overall Gαi response (BRET) with the Y7L peptide, decrease [6]: 18%

Molecule: KPYSLSYRCPCRFFESH-NH2 (cysteine pairing not given here) [CXCL12 V3Y variant peptide (17 N-terminal residues)]
efficacy of signaling, increase over the WT receptor-peptide pair [7]: 25%
potency of signaling, fold over the WT receptor-peptide pair [7]: > 80 fold

B1: Cdyn: CXCR4 receptor design maintaining conformational dynamism; 3 mutations (protein, UniProt P61073 1-352, looked up, variant L41A S178A H113N)
C-X-C chemokine receptor type …: MEGISIYTSDNYTEEMGSGDYDSMKEPCFREENANFNKIFAPTIYSIIFLTGIVGNGLVILVMGYQKKLRSMTDKYRLHLSVADLLFVITLPFWAVDAVANWYFGNFLCKAVNVIYTVNLYSSVLILAFISLDRYLAIVHATNSQRPRKLLAEKVVYVGVWIPALLLTIPDFIFANVAEADDRYICDRFYPNDLWVVVFQFQHIMVGLILPGIVILSCYCIIISKLSHSKGHQKRKALKTTVILILAFFACWLPYYIGISIDSFILLEIIKQGCEFENTVHKWISITEALAFFHCCLNPILYAFLGAKFKTSAQHALTSVSRGSSLKILSKGKRGGHSSVSTESESSSFHSS
Potency (activity shift from WT) [8]: 1.794
enhanced potency from WT (Gαi activation; up to): up to 11 -fold
enhanced potency in Gαi-coupling (Gαi activation; over WT CXCR4): ~11 -fold
increase in efficacy (Gαi) (Gαi activation; vs WT CXCR4): 20%

Molecule: KPYSLSLRCPCRFFESH-NH2 (cysteine pairing not given here) [CXCL12 V3Y-Y7L variant peptide (17 N-terminal residues)]
efficacy of signaling, increase [12]: 34%
potency of signaling, fold increase [12]: > 100 fold

Second part, the molecule after the results:

Efficacy (Csedy [3]; average (n=3)): 102.027 % WT
log(EC50) (Csedy [3]; replicate 1): -5.519
log(EC50) (Csedy [3]; replicate 2): -5.737
log(EC50) (Csedy [3]; replicate 3): -5.907
increase in efficacy (Csedy [4]; vs WT receptor–peptide pair): > 34%
log(EC50) (Csedy [4]; replicate 1): -6.83
log(EC50) (Csedy [4]; replicate 2): -7.058
log(EC50) (Csedy [4]; replicate 3): -7.474
Molecule: CC(C)C[C@H](NC(=O)[C@H](CO)NC(=O)[C@H](Cc1ccc(O)cc1)NC(=O)[C@@H]1CCCN1C(=O)[C@@H](N)CCCCN)C(=O)N[C@@H](CO)C(=O)N[C@@H](CC(C)C)C(=O)N[C@@H](CCCNC(=N)N)C(=O)N[C@@H](CS)C(=O)N1CCC[C@H]1C(=O)N[C@@H](CS)C(=O)N[C@@H](CCCNC(=N)N)C(=O)N[C@@H](Cc1ccccc1)C(=O)N[C@@H](Cc1ccccc1)C(=O)N[C@@H](CCC(=O)O)C(=O)N[C@@H](CO)C(=O)N[C@@H](Cc1c[nH]cn1)C(N)=O [V3Y-Y7L] (H-KPYSLSLRCPCRFFESH-NH2)

potency in Gαi-coupling (BRET, HEK 293T cells, WT CXCL12 peptide), fold over WT CXCR4 [9]: 3.2 fold
potency in calcium mobilization (HEK 293T cells, WT CXCL12 peptide), fold over WT CXCR4 [9]: 3.1 fold
Gαi efficacy (BRET, WT CXCL12 peptide), increase over the CXCR4 WT scaffold [10]: 20%
Gαi potency (BRET, WT CXCL12 peptide), fold over the CXCR4 WT scaffold [10]: 11 fold
Gαi response (BRET) against WT CXCL12 peptide, fold increase over WT CXCR4 [11]: > 9 fold
Molecule: KPVSLSYRCPCRFFESH-NH2 (cysteine pairing not given here) [wild-type peptide of the 17 N-terminal residues of CXCL12]
